From US9714249B2 (Novartis AG, priority 2013, dated 2017)

Experiments:
BRD4 (His-Brd4(44-477)) = BRD4 (His-Brd4(44-477)) (Homo sapiens (Human), UniProt O60885); experiment: TR-FRET in-vitro binding assay for BRD4; details: acetyl-histone H4 peptide
Procedure: All assays were performed in 384 well microtiter plates. Each assay plate contained 8-point serial dilutions for 40 test compounds, plus 16 high- and 16 low controls. Liquid handling and incubation steps were done on an Innovadyne Nanodrop Express equipped with a robotic arm (Thermo CatX, Perkin Elmer/Caliper Twister II) and an incubator (Liconic STX40, Thermo Cytomat 2C450). The assay plates were prepared by addition of 50 nl per well of compound solution in 90% DMSO HummingBird nanodispenser (Zinsser Analytic). […] Reactions were incubated at 30° C. for 35 minutes. […] After 35 minutes incubation at 30° C., plates were measured in a Perkin Elmer EnVision multilabel reader.
Test compounds were dissolved in DMSO (10 mM) and transferred into 1.4 mL flat bottom or V-shaped Matrix tubes carrying a unique 2D matrix. The stock solutions were stored at […] if not used immediately. For the test procedure the vials were defrosted and identified by a scanner whereby a working sheet was generated that guided the subsequent working steps. Compound dilutions were made in 96 well plates. This format enabled the assay of maximally 40 individual test compounds at 8 concentrations (single points) including 4 reference compounds, if desired (known BET inhibitors from the prior art, for this and other assays of the type disclosed herein). The dilution protocol included the production of “pre-dilution plates”, “master plates” and “assay plates”.
Pre-dilution plates: 96 polypropylene well plates were used as pre-dilution plates. A total of 4 pre-dilution plates were prepared including 10 test compounds each on the plate positions A1-A10, one standard compound at A11 and one DMSO control at A12. All dilution steps were done on a HamiltonSTAR robot. […] These plates were used directly for the assay which was performed in a total volume of 13.55 μL. […] Cell Growth Inhibition Assay

K-562 cells = experiment: Cell growth inhibition assay (CellTiter-Glo), K-562; type: cell-based, human; details: K-562, 4 days; for GI50: Homo sapiens, K562, 96 h, half-maximal growth inhibition; for K-562 TGI: total growth inhibition
Procedure: (§1) The human leukemia cell lines MV-4-11, THP-1 and K-562 were employed to characterize the effect of BET inhibitors on cellular proliferation and viability. Cells were obtained from the American Type Culture Collection (ATCC) and cultured at 37° C. in a humidified 5% CO2 incubator in the following media: MV-4-11: DMEM high glucose (Animed #1-26F01-I), 10% FCS (Animed #2-01F26-I), 4 mM L-Glutamine (Animed #5-10K50), 1 mM Sodium Pyruvate (Animed # G03625P), 1× Penicillin-Streptomycin (Animed # F12478P); K-562: Iscove's MEM (Animed #1-28F16-I), 10% FCS (Animed #2-01F26-I), 4 mM L-Glutamine (Animed #5-10K50), 1× Penicillin-Streptomycin (Animed # F12478P); THP-1: RPMI-1640 (Animed #1-41F01-I), 10% FCS (Animed #2-01F26-I), 2 mM L-Glutamine (Animed #5-10K50), 10 mM HEPES (Animed #5-31F100), 1 mM Sodium Pyruvate (Animed # G03625P), 1× Penicillin-Streptomycin (Animed # F12478P). The AML lines MV-4-11 and THP-1 are very sensitive to BET inhibitors and show massive cell death upon BET inhibition (Zuber et al., Nature, 478 (2011), 524-8). Compound-mediated suppression of cell proliferation/viability was assessed by quantification of cellular ATP levels using the CellTiter-Glo (CTG) reagent (Promega). Briefly, cells were seeded in 20 μl fresh medium into 384-well plates, followed by addition of 5 μl medium containing compound dilutions at 5-fold their final intended concentration. Dose-response effects were assessed by 3-fold serial dilutions of the test compound, starting at 10 μM. Following incubation of the cells for 4 days at 37° C. and 5% CO2, the effect of inhibitors on cell viability was quantified following addition of 20 μl CTG and luminescence quantification (integration time: 100 ms) as per vendor manual, using a correspondingly equipped Tecan M200 multi-mode platereader (TECAN, Switzerland). For data analysis, the assay background value determined in wells containing medium, but no cells, was subtracted from all data points. To enable differentiation of cytotoxic from cytostatic compounds, the number of viable cells is assessed relative to that observed at the time of compound addition using a separate cell plate (day 0). The effect of a particular test compound concentration on cell proliferation/viability is expressed as percentage of the background- and day 0-corrected luminescence reading obtained for cells treated with vehicle only (DMSO, 0.1% final concentration), which is set as 100%, whereas that luminescence reading for wells containing medium is set as −100%. Compound concentrations leading to half-maximal (1050) and total growth inhibition (TGI) were determined using standard four parameter curve fitting.

THP-1 cells = experiment: Cell growth inhibition assay (CellTiter-Glo), THP-1; type: cell-based, human; details: THP-1, 4 days; for GI50: Homo sapiens, 96 h, half-maximal growth inhibition; for THP-1 TGI: total growth inhibition
Procedure: as §1

MV-4-11 cells = experiment: Cell growth inhibition assay (CellTiter-Glo), MV-4-11; type: cell-based, human; details: MV-4-11, 4 days; for GI50: Homo sapiens, MV4-11, 96 h, half-maximal growth inhibition; for MV-4-11 TGI: total growth inhibition
Procedure: as §1

BRD4-NUT-fusion = BRD4-NUT-fusion (Homo sapiens (Human), UniProt O60885+Q86Y26); experiment: Nut-foci formation assay (HCS) in HCC2494 NUT midline carcinoma cells; type: cell-based; details: 24 hours, nuclear BRD4-NUT foci, immunofluorescence
Procedure: Compound-mediated inhibition of BRD4 activity was monitored by quantification of the number and intensity of nuclear BRD4-NUT foci using automated immunofluorescence microscopy. Briefly, 5000 cells in 20 μl fresh medium were seeded into Poly-D-Lysine-precoated 384-well plates and incubated overnight at 37° C. and 5% CO2, followed by addition of 5 μl medium containing compound dilutions at 5-fold their final intended concentration. Dose-response effects were assessed by 3-fold serial dilutions of the test compound, starting at 10 μM. […] Assay plates were imaged using the appropriate filter sets on the Cellomics VTi automated fluorescence microscopy platform (ThermoFisher Scientific) and the population average of the number of NUT-foci per nucleus is quantified using the Cellomics Spot Detection BioApplication image analysis algorithm (ThermoFisher Scientific). The effect of a particular test compound concentration on NUT-foci number and intensity is expressed as percentage of the value obtained for cells treated with vehicle only (DMSO, 0.1% final concentration), which was set as 100.

Row | Compound | IC50 (BRD4 (His-Brd4(44-477))) [nM] | GI50 (K-562 cells) [nM] | GI50 (THP-1 cells) [nM] | GI50 (MV-4-11 cells) [nM] | IC50 (BRD4-NUT-fusion) [nM] | K-562 TGI (K-562 cells) [nM] | THP-1 TGI (THP-1 cells) [nM] | MV-4-11 TGI (MV-4-11 cells) [nM]
1 | COc1ncc(-n2nc3c(c2C)C(=O)N(c2cc(C)c(=O)n(C)c2)C3c2ccc(Cl)cc2)c(OC)n1 (stereo not shown) [Example 14, 6-(4-chlorophenyl)-2-(2,4-dimethoxypyrimidin-5-yl)-5-(1,5-dimethyl-6-oxo-1,6-dihydropyridin-3-yl)-3-methyl-5,6-dihydropyrrolo[3,4-c]pyrazol-4(2H)-one] | 100 | 615 | 219 | 122 |  | >10000 | 352 | 203
2 | COc1ncccc1-n1nc(C)c2c1[C@@H](c1ccc(Cl)cc1)N(c1cc(C)c(=O)n(C)c1)C2=O [Example 25, (R)-6-(4-chlorophenyl)-5-(1,5-dimethyl-6-oxo-1,6-dihydropyridin-3-yl)-1-(2-methoxypyridin-3-yl)-3-methyl-5,6-dihydropyrrolo[3,4-c]pyrazol-4(1H)-one] | 150 | 206 | 72.7 | 40.7 |  | >10000 | 135.5 | 72.55
3 | Cc1cc(N2C(=O)c3c(C4CC4)nn(-c4ccnn4C)c3[C@H]2c2ccc(Cl)cc2)cn(C)c1=O [Example 22, (R)-6-(4-chlorophenyl)-3-cyclopropyl-5-(1,5-dimethyl-6-oxo-1,6-dihydropyridin-3-yl)-1-(1-methyl-1H-pyrazol-5-yl)-5,6-dihydropyrrolo[3,4-c]pyrazol-4(1H)-one] | 140 | 278 | 87.4 | 49.5 |  | >10000 | 165 | 88.65
4 | Cc1cc(N2C(=O)c3c(C4CC4)n[nH]c3[C@H]2c2ccc(Cl)cc2)cn(C)c1=O [Example 24, (R)-6-(4-chlorophenyl)-3-cyclopropyl-5-(1,5-dimethyl-6-oxo-1,6-dihydropyridin-3-yl)-5,6-dihydropyrrolo[3,4-c]pyrazol-4(1H)-one] | 73 | 103 | 29.7 | 21.6 |  | >10000 | 62.25 | 34.95
5 | COc1ncccc1-n1nc2c(c1C)C(=O)N(c1cc(C)c(=O)n(C)c1)[C@@H]2c1ccc(Cl)cc1 [Example 26, (R)-6-(4-chlorophenyl)-5-(1,5-dimethyl-6-oxo-1,6-dihydropyridin-3-yl)-2-(2-methoxypyridin-3-yl)-3-methyl-5,6-dihydropyrrolo[3,4-c]pyrazol-4(2H)-one] | 91 | 174 | 27.6 | 22.6 |  | >10000 | 52.4 | 36.75
6 | COc1ccc(-n2nc(C)c3c2C(c2ccc(Cl)cc2)N(c2cc(C)c(=O)n(C)c2)C3=O)cc1 (stereo not shown) [Example 13, 6-(4-chlorophenyl)-5-(1,5-dimethyl-6-oxo-1,6-dihydropyridin-3-yl)-1-(4-methoxyphenyl)-3-methyl-5,6-dihydropyrrolo[3,4-c]pyrazol-4(1H)-one] | 103 | 484 | 69.8 | 30 |  | >10000 | 119 | 56.2
7 | Cc1[nH]nc2c1C(=O)N(c1cc(Cl)c(=O)n(C)c1)[C@@H]2c1ccc(Cl)cc1 [Example 28, (R)-5-(5-chloro-1-methyl-6-oxo-1,6-dihydropyridin-3-yl)-6-(4-chlorophenyl)-3-methyl-5,6-dihydropyrrolo[3,4-c]pyrazol-4(2H)-one] | 160 | 318 | 110 | 49.3 |  | >10000 | 201.5 | 86.4

The next lines start with results.

Row | IC50 (BRD4 (His-Brd4(44-477))) [nM] | GI50 (K-562 cells) [nM] | GI50 (THP-1 cells) [nM] | GI50 (MV-4-11 cells) [nM] | IC50 (BRD4-NUT-fusion) [nM] | Compound | K-562 TGI (K-562 cells) [nM] | THP-1 TGI (THP-1 cells) [nM] | MV-4-11 TGI (MV-4-11 cells) [nM]
8 | 210 | 999 | 293 | 117 | 58 | COc1ncc(-n2nc3c(c2C)C(=O)N(c2cc(Cl)c(=O)n(C)c2)C3c2ccc(Cl)cc2)cn1 (stereo not shown) [Example 8b, 5-(5-chloro-1-methyl-6-oxo-1,6-dihydropyridin-3-yl)-6-(4-chlorophenyl)-2-(2-methoxypyrimidin-5-yl)-3-methyl-5,6-dihydropyrrolo[3,4-c]pyrazol-4(2H)-one] | >10000 | 562 | 195
9 | 41 | 149 | 44 | 16.9 | 21.7 | CCOc1ncccc1-n1nc2c(c1C)C(=O)N(c1cc(C)c(=O)n(C)c1)C2c1ccc(Cl)cc1 (stereo not shown) [Example 18b, 6-(4-chlorophenyl)-5-(1,5-dimethyl-6-oxo-1,6-dihydropyridin-3-yl)-2-(2-ethoxypyridin-3-yl)-3-methyl-5,6-dihydropyrrolo[3,4-c]pyrazol-4(2H)-one] | >10000 | 93.1 | 31.3
10 | 71 | 404 | 166 | 115 |  | COc1ncc(-n2nc(C)c3c2C(c2ccc(Cl)cc2)N(c2cc(C)c(=O)n(C)c2)C3=O)cn1 (stereo not shown) [Example 21a, 6-(4-chlorophenyl)-5-(1,5-dimethyl-6-oxo-1,6-dihydropyridin-3-yl)-1-(2-methoxypyrimidin-5-yl)-3-methyl-5,6-dihydropyrrolo[3,4-c]pyrazol-4(1H)-one] | >10000 | 331 | 177
11 | 110 | 510 | 209 | 105 |  | COc1ncc(-n2nc3c(c2C)C(=O)N(c2cc(C)c(=O)n(C)c2)C3c2ccc(Cl)cc2)cn1 (stereo not shown) [Example 21b, 6-(4-chlorophenyl)-5-(1,5-dimethyl-6-oxo-1,6-dihydropyridin-3-yl)-2-(2-methoxypyrimidin-5-yl)-3-methyl-5,6-dihydropyrrolo[3,4-c]pyrazol-4(2H)-one] | >10000 | 396 | 208
